Common to all, as to format: cell-based
Test [1] relates to Ba/F3-EGFR ins. ASV cells. Briefly: Cell proliferation suppression test (CellTiter-Glo, GI50), Ba/F3-EGFR ins. ASV. Conditions: Mus musculus, 72 h, 3 days, N=4. The method in brief: (§1)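 Ba/F3 lines in RPMI 1640/10% FBS without puromycin; IL-3 5 ng/mL added for Mock, EGF 100 ng/mL for EGFR WT. Cells treated 3 days at 37 °C, 5% CO2; ATP measured by CellTiter-Glo 2.0 on day 0 and day 3 (N=4). GI50 is the concentration inhibiting 50% of day 0–3 proliferation.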
Background: In ATP-based viability assays light output follows the ATP content of the culture.

A further test deals with Ba/F3-Mock cells. Briefly: Cell proliferation suppression test (CellTiter-Glo, GI50), Ba/F3-Mock. Conditions: Mus musculus, BaF3, 72 h, 5 ng/mL IL-3, 3 days, N=4. The method in brief: as §1
The test system of test [2] is Ba/F3-EGFR ins. SVD cells. Briefly: Cell proliferation suppression test (CellTiter-Glo, GI50), Ba/F3-EGFR ins. SVD. Conditions: Mus musculus, 72 h, 3 days, N=4. The method in brief:
as §1

In a further test the test system is Ba/F3-EGFR WT cells. The experiment in a line: Cell proliferation suppression test (CellTiter-Glo, GI50), Ba/F3-EGFR WT. Conditions: Mus musculus, 72 h, 100 ng/mL EGF, 3 days, N=4. Put shortly:
as §1

`COc1cc2ncnc(Nc3ccc(Oc4nn(CC(=O)NC(C)(C)C)cc4F)cc3F)c2cc1NC(=O)/C=C/CN1CC(OC)C1` [Example 60, (2E)-N-{4-[4-({1-[2-(tert-Butylamino)-2-oxoethyl]-4-fluoro-1H-pyrazol-3-yl}oxy)-2-fluoroanilino]-7-methoxyquinazolin-6-yl}-4-(3-methoxyazetidin-1-yl)but-2-enamide]: the GI50 (in general, the concentration giving 50% growth inhibition) in test [1] was determined as 11.9 nM; with Ba/F3-Mock cells, 6030 nM; in test [2], 10.7 nM; in the test on Ba/F3-EGFR WT cells it was 497 nM.

`COc1cc2ncnc(Nc3ccc(Oc4nn(CC(=O)NC(C)(C)C)cc4F)cc3Cl)c2cc1NC(=O)/C=C/CN(C)C` [Example 45, (2E)-N-{4-[4-({1-[2-(tert-Butylamino)-2-oxoethyl]-4-fluoro-1H-pyrazol-3-yl}oxy)-2-chloroanilino]-7-methoxyquinazolin-6-yl}-4-(dimethylamino)but-2-enamide]: the concentration for 50% growth inhibition (GI50) in test [1] stood at 10 nM; with Ba/F3-Mock cells, 2840 nM; in test [2], 11.6 nM; in the test on Ba/F3-EGFR WT cells, 412 nM.

As for `COc1cc2ncnc(Nc3ccc(Oc4nn(CC(=O)NC(C)(C)C)cc4F)cc3Cl)c2cc1NC(=O)/C=C/CN1CC[C@@H](F)C1` [Example 56, (2E)-N-{4-[4-({1-[2-(tert-Butylamino)-2-oxoethyl]-4-fluoro-1H-pyrazol-3-yl}oxy)-2-chloroanilino]-7-methoxyquinazolin-6-yl}-4-[(3R)-3-fluoropyrrolidin-1-yl]but-2-enamide], the 50% growth inhibitory concentration (GI50) came to 8.5 nM in test [1], 4680 nM with Ba/F3-Mock cells, 4.6 nM in test [2] and 635 nM in the test on Ba/F3-EGFR WT cells.

As to `COc1cc2ncnc(Nc3ccc(Oc4nc(-c5nnc(C6CC6)o5)cs4)cc3F)c2cc1NC(=O)/C=C/CN1CC[C@@H](OC)C1` [Example 63, (2E)-N-[4-(4-{[4-(5-Cyclopropyl-1,3,4-oxadiazol-2-yl)-1,3-thiazol-2-yl]oxy}-2-fluoroanilino)-7-methoxyquinazolin-6-yl]-4-[(3R)-3-methoxypyrrolidin-1-yl]but-2-enamide], the GI50 in test [1] came out at 49.5 nM; in the test with Ba/F3-Mock cells, 1060 nM; in test [2] it was 81.8 nM; in the test with Ba/F3-EGFR WT cells it was 129 nM.

As for `C=CC(=O)N1CCC(Oc2cc3c(Nc4ccc(Oc5nc(C(=O)NC(C)(C)C)cs5)cc4F)ncnc3cc2OC)CC1` [Example 15, N-tert-Butyl-2-{3-fluoro-4-[(7-methoxy-6-{[1-(prop-2-enoyl)piperidin-4-yl]oxy}quinazolin-4-yl)amino]phenoxy}-1,3-thiazole-4-carboxamide], the GI50 is 12.2 nM in test [1], over 10000 nM in the test on Ba/F3-Mock cells, 5.5 nM in test [2] and 77.3 nM with Ba/F3-EGFR WT cells.

Turning to `COc1cc2ncnc(Nc3ccc(Oc4cccc(CC(=O)NC(C)(C)C)c4)cc3F)c2cc1NC(=O)/C=C/CN1CCOCC1` [Example 49, (2E)-N-[4-(4-{3-[2-(tert-Butylamino)-2-oxoethyl]phenoxy}-2-fluoroanilino)-7-methoxyquinazolin-6-yl]-4-(morpholin-4-yl)but-2-enamide], the GI50 in test [1] was 20.7 nM; in the test on Ba/F3-Mock cells it was over 10000 nM; in test [2] it was 21.1 nM; in the test with Ba/F3-EGFR WT cells, 732 nM.

As for `C=CC(=O)N1CCC(Oc2cc3c(Nc4ccc(Oc5nc(-c6ccc(C)nc6)cs5)cc4F)ncnc3cc2OC)CC1` [Example 37, 1-(4-{[4-(2-Fluoro-4-{[4-(6-methylpyridin-3-yl)-1,3-thiazol-2-yl]oxy}anilino)-7-methoxyquinazolin-6-yl]oxy}piperidin-1-yl)prop-2-en-1-one], the GI50 in test [1] was 10.5 nM; in the test with Ba/F3-Mock cells, over 10000 nM; in test [2] it was 5.7 nM; in the test on Ba/F3-EGFR WT cells, 163 nM.

For the compound `C=CC(=O)N1CCC(Oc2cc3c(Nc4ccc(Oc5ccn(-c6ccc(C)nc6)n5)cc4F)ncnc3cc2OC)CC1` [Example 28, 1-(4-{[4-(2-Fluoro-4-{[1-(6-methylpyridin-3-yl)-1H-pyrazol-3-yl]oxy}anilino)-7-methoxyquinazolin-6-yl]oxy}piperidin-1-yl)prop-2-en-1-one], the GI50 in test [1] amounted to 12.4 nM; in the test on Ba/F3-Mock cells, 8370 nM; in test [2], 12.1 nM; with Ba/F3-EGFR WT cells, 290 nM.

Consider `COc1cc2ncnc(Nc3ccc(Oc4nn(CC(=O)NC(C)(C)C)cc4F)cc3F)c2cc1NC(=O)/C=C/CN(C)C` [Example 46, (2E)-N-{4-[4-({1-[2-(tert-Butylamino)-2-oxoethyl]-4-fluoro-1H-pyrazol-3-yl}oxy)-2-fluoroanilino]-7-methoxyquinazolin-6-yl}-4-(dimethylamino)but-2-enamide], for which the concentration for 50% growth inhibition (GI50) in test [1] was found to be 6.5 nM; in the test on Ba/F3-Mock cells it was 3090 nM; in test [2], 4.7 nM; with Ba/F3-EGFR WT cells it was 261 nM.

Consider `C=CC(=O)N1CCC(Oc2cc3c(Nc4ccc(Oc5ccn(-c6ccnc(OC)c6)n5)cc4F)ncnc3cc2OC)CC1` [Example 9, 1-(4-{[4-(2-Fluoro-4-{[1-(2-methoxypyridin-4-yl)-1H-pyrazol-3-yl]oxy}anilino)-7-methoxyquinazolin-6-yl]oxy}piperidin-1-yl)prop-2-en-1-one], for which the GI50 in test [1] was determined as 17.1 nM; in the test on Ba/F3-Mock cells, 9590 nM; in test [2], 15.3 nM; with Ba/F3-EGFR WT cells, 280 nM.

For the origin of these results see patent publication US20230025510A1, “BIARYL ETHER-TYPE QUINAZOLINE DERIVATIVES” (DAIICHI SANKYO COMPANY, LIMITED, priority 2018, published 2023).
